Patent US8791139B2, “Anthranilic diamide derivatives” (Bayer Cropscience AG, priority 2010, dated 2014)
Values joined by “and” are separate entries in the source; they are usually repeats but may differ in a detail not shown here. Equal entries are not always repeated. Where two headings read alike, the source gives them in different places.

Columns and labels:
[1] = test system: caterpillars of the armyworm (Spodoptera frugiperda); test: Spodoptera frugiperda test (SPODFR spray treatment); assay type: in vivo; conditions: 168 h; for pest or weed control at 100 g/ha / pest or weed control at 500 g/ha: read-out: activity (caterpillars killed); for inhibition at 100 g/ha: 7 d, comparison with prior art
Experimental: After 7 days, the effect in % is determined.

[2] = test system: larvae of the mustard beetle (Phaedon cochleariae); test: Phaedon test (PHAECO spray treatment); conditions: 168 h; for pest or weed control at 100 g/ha / pest or weed control at 500 g/ha: read-out: activity (beetle larvae killed); for inhibition at 100 g/ha: read-out: % Activity, PHAECO
[3] = logP by HPLC on reversed-phase columns (C18), EEC Directive 79/831 Annex V.A8; assay type: physicochemical; conditions: for logP: HPLC reversed-phase C18, acidic range pH 2.7
Experimental: The logP values reported in the table above and in the Preparation Examples were determined in accordance with EEC Directive 79/831 Annex V.A8 by HPLC (High Performance Liquid Chromatography) on reversed-phase columns (C18), with the following methods:
The LC-MS determination in the acidic range is carried out at pH 2.7 using the mobile phases 0.1% aqueous formic acid and acetonitrile (contains 0.1% formic acid), linear gradient from 10% acetonitrile to 95% acetonitrile
Calibration was carried out using unbranched alkan-2-ones (having from 3 to 16 carbon atoms) with known logP values (the logP values were determined by the retention times using linear interpolation between two successive alkanones).

[4] = test system: Lucilia cuprina larvae; test: Lucilia cuprina test (LUCICU); assay type: in vivo; conditions: application rate 100 ppm, after 48 h
Excerpt: Solvent: dimethyl sulphoxide
Vessels containing horse meat treated with the active compound preparation of the desired concentration are populated with about 20 Lucilia cuprina larvae.

[5] = test system: green peach aphid (Myzus persicae); test: Myzus test (MYZUPE spray treatment); assay type: in vivo; conditions: application rate 100 g/ha, after 6 days, Chinese cabbage leaf discs
[6] = application rate 100 g/ha, after 7 days
[7] = reversed-phase HPLC column (C18), pH 2.7, HPLC reversed-phase C18, acidic range pH 2.7, 0.1% aqueous formic acid/acetonitrile, table of compounds of formula (I), read-out: log P
[8] = reversed-phase HPLC column (C18), pH 2.7, HPLC reversed-phase C18, acidic range pH 2.7, Preparation Examples (intermediates), read-out: logP
[9] = Preparation Examples (intermediates)

| Molecule | pest or weed control at 100 g/ha [1] [%] | pest or weed control at 100 g/ha [2] [%] | chromatographic logP ([3]; pH 2.7, log P) | further results |
| --- | --- | --- | --- | --- |
| CNC(=O)c1cc(Cl)cc(C)c1NC(=O)c1cc(C2=NOC(c3cc(Cl)cc(Cl)c3)(C(F)(F)F)C2)nn1-c1ncccc1Cl (stereo not drawn) [Example 1] | 100 | 83 |  |  |
| Cc1cc(Br)cc(C(=O)NC(C)C)c1NC(=O)c1cc(C(=O)Nc2ccc(C(F)(F)F)cc2)nn1-c1ncccc1Cl [Example 3] |  | 100 | 4.02 |  |
| Cc1cc(Cl)cc(C(=O)NC(C)C)c1NC(=O)c1cc(C(=O)Nc2ccc(C(F)(F)F)cc2)nn1-c1ncccc1Cl [Example 4] | 83 |  | 3.96 |  |
| CNC(=O)c1cc(Cl)cc(C)c1NC(=O)c1cc(C#Cc2ccc(OC(F)(F)F)cc2)nn1-c1ncccc1Cl [Example 10] | 100 | 100 | 4.29 |  |
| Cc1cc(Cl)cc(C(=O)NC(C)C)c1NC(=O)c1cc(C#Cc2ccc(OC(F)(F)F)cc2)nn1-c1ncccc1Cl [Example 11] | 100 | 100 | 4.79 | efficacy (kill of larvae) [4]: 90% |
| Cc1cc(C#N)cc(C(N)=O)c1NC(=O)c1cc(C#Cc2ccc(OC(F)(F)F)cc2)nn1-c1ncccc1Cl [Example 12] | 100 |  | 3.58 | efficacy (kill of larvae) [4]: 90% |
| CNC(=O)c1cc(C#N)cc(C)c1NC(=O)c1cc(C#Cc2ccc(OC(F)(F)F)cc2)nn1-c1ncccc1Cl [Example 13] |  | 100 | 3.88 |  |
| Cc1cc(C#N)cc(C(=O)NC(C)(C)C)c1NC(=O)c1cc(C(=O)c2nc(C(F)(F)F)cs2)nn1-c1ncccc1Cl [Example 14] | 100 | 100 | 3.57 |  |
| CCOc1ccc(C(=O)c2cc(C(=O)Nc3c(C)cc(C#N)cc3C(=O)NC)n(-c3ncccc3Cl)n2)cn1 [Example 17] | 100 | 100 | 2.99 |  |
| CNC(=O)c1cc(C#N)cc(C)c1NC(=O)c1cc(C(=O)c2ccc(C(F)(F)F)nc2)nn1-c1ncccc1Cl [Example 18] |  | 100 | 3.01 | inhibition at 100 g/ha [1]: 100%; inhibition at 100 g/ha [2]: 100% |
| Cc1cc(C#N)cc(C(=O)NC(C)(C)C)c1NC(=O)c1cc(C(=O)c2ccc(C(F)(F)F)nc2)nn1-c1ncccc1Cl [Example 19] |  |  | 3.85 | pest or weed control at 500 g/ha [1]: 100%; pest or weed control at 500 g/ha [2]: 100% |
| CNC(=O)c1cc(C#N)cc(C)c1NC(=O)c1cc(C(=O)c2nc(C(F)(F)F)cs2)nn1-c1ncccc1Cl [Example 20] |  |  | 2.77 | pest or weed control at 500 g/ha [1]: 100%; pest or weed control at 500 g/ha [2]: 100% |
| Cc1cc(C#N)cc(C(=O)NC(C)C)c1NC(=O)c1cc(C(=O)c2nc(C(F)(F)F)cs2)nn1-c1ncccc1Cl [Example 21] | 100 | 100 | 3.24 | activity (aphids killed) [5]: 90%; efficacy (kill of larvae) [4]: 100% |
| CNC(=O)c1cc(Cl)cc(C)c1NC(=O)c1cc(CN(C=O)c2ccccc2NS(C)(=O)=O)nn1-c1ncccc1Cl [Example 32] |  |  | 2.09 | activity (aphids killed) [5]: 80% |
| CNC(=O)c1cc(Cl)cc(C)c1NC(=O)c1cc(CN(C=O)c2ccc(Cl)cc2NS(C)(=O)=O)nn1-c1ncccc1Cl [Example 33] | 100 |  | 2.49 | activity (aphids killed) [5]: 90% |
| Cc1cc(Cl)cc(C(=O)NC(C)C)c1NC(=O)c1cc(CNS(=O)(=O)c2ccc(C(F)(F)F)cc2)nn1-c1ncccc1Cl [Example 46] | 83 |  | 3.47 |  |
| Cc1cc(Cl)cc(C(=O)NC(C)C)c1NC(=O)c1cc(CNS(=O)(=O)Cc2ccc(C(F)(F)F)cc2C(F)(F)F)nn1-c1ncccc1Cl [Example 52] |  |  |  | pest or weed control at 100 g/ha [1, 6]: 83%; chromatographic logP [3, 7]: 3.92 |
| Cc1cc(Cl)cc(C(=O)NC(C)C)c1NC(=O)c1cc(CN(C)S(=O)(=O)c2cc(C(F)(F)F)cc(C(F)(F)F)c2)nn1-c1ncccc1Cl [Example 55] |  |  |  | pest or weed control at 100 g/ha [1, 6]: 100%; chromatographic logP [3, 7]: 4.5 |
| Cc1cc(Cl)cc(C(=O)NC(C)C)c1NC(=O)c1cc(CN(C)S(=O)(=O)Cc2cc(C(F)(F)F)cc(C(F)(F)F)c2)nn1-c1ncccc1Cl [Example 56] |  |  |  | pest or weed control at 100 g/ha [1, 6]: 100%; chromatographic logP [3, 7]: 4.37 |

| Molecule | pest or weed control at 100 g/ha [1] [%] | pest or weed control at 100 g/ha [2] [%] | chromatographic logP ([3]; pH 2.7, log P) | further results |
| --- | --- | --- | --- | --- |
| Cc1cc(Cl)cc(C(=O)NC2CC2)c1NC(=O)c1cc(CN(Cc2cc(C(F)(F)F)cc(C(F)(F)F)c2)S(C)(=O)=O)nn1-c1ncccc1Cl [Example 59] |  |  |  | pest or weed control at 100 g/ha [1, 6]: 100%; chromatographic logP [3, 7]: 4.05 |
| CNC(=O)c1cc(C#N)cc(C)c1NC(=O)c1cc(/C=C/n2nnc(C(F)(F)F)n2)nn1-c1ncccc1Cl [Example 64] | 100 | 100 | 3.17 |  |
| Cc1cc(C#N)cc(C(=O)NC(C)C)c1NC(=O)c1cc(Nc2ccc(C(F)(F)F)cn2)nn1-c1ncccc1Cl [Example 67] | 100 | 100 | 3.31 |  |
| CNC(=O)c1cc(C#N)cc(C)c1NC(=O)c1cc(CN2CC(C(F)(F)F)C(c3ccc(Cl)cc3)=N2)nn1-c1ncccc1Cl (stereo not drawn) [Example 68] | 100 | 100 | 3.66 |  |
| CNC(=O)c1cc(C#N)cc(C)c1NC(=O)c1cc(Nc2cc(C(F)(F)F)c(C(F)(F)F)cn2)nn1-c1ncccc1Cl [Example 71] | 100 | 100 | 3.5 |  |
| Cc1cc(C#N)cc(C(=O)NC(C)C)c1NC(=O)c1cc(Nc2cc(C(F)(F)F)cc(C(F)(F)F)c2)nn1-c1ncccc1Cl [Example 73] | 100 | 100 |  |  |
| Cc1cc(C#N)cc(C(=O)NC(C)C)c1NC(=O)c1cc(Nc2ccc(C(F)(F)F)cc2)nn1-c1ncccc1Cl [Example 74] | 100 | 100 | 3.7 |  |
| Cc1cc(C#N)cc(C(=O)NC(C)C)c1NC(=O)c1cc(Oc2ccc(C(F)(F)F)cn2)nn1-c1ncccc1Cl [Example 76] | 100 | 100 | 3.4 |  |
| CNC(=O)c1cc(C#N)cc(C)c1NC(=O)c1cc(Oc2ccc(C(F)(F)F)cn2)nn1-c1ncccc1Cl [Example 77] | 100 | 100 | 2.89 |  |
| COC(=O)c1cc(C2CO2)nn1-c1ncccc1Cl (stereo not drawn) [Example No. XI, Methyl 1-(3-chloropyridin-2-yl)-3-(oxiran-2-yl)-1H-pyrazole-5-carboxylate] |  |  |  | chromatographic logP [3, 8]: 1.67 |
| COC(=O)c1cc(N)nn1-c1ncccc1Cl [Example No. XIX, Methyl 3-amino-1-(3-chloropyridin-2-yl)-1H-pyrazole-5-carboxylate] |  |  |  | chromatographic logP [3, 8]: 1.09 |
| O=[N+]([O-])c1ccn(-c2ncccc2Cl)n1 [Example No. XVI, 3-Chloro-2-(3-nitro-1H-pyrazol-1-yl)pyridine] |  |  |  | chromatographic logP [3, 8]: 1.83 |
| O=C(O)c1cc([N+](=O)[O-])nn1-c1ncccc1Cl [Example No. XVII, 1-(3-Chloropyridin-2-yl)-3-nitro-1H-pyrazole-5-carboxylic acid] |  |  |  | chromatographic logP [3, 8]: 0.9 |
| COC(=O)c1cc([N+](=O)[O-])nn1-c1ncccc1Cl [Example No. XVIII, Methyl 1-(3-chloropyridin-2-yl)-3-nitro-1H-pyrazole-5-carboxylate] |  |  |  | chromatographic logP [3, 8]: 2.18 |
| COC(=O)c1cc(Nc2ccc(C(F)(F)F)cn2)nn1-c1ncccc1Cl [Example No. XX, Methyl 1-(3-chloropyridin-2-yl)-3-{[5-(trifluoromethyl)pyridin-2-yl]amino}-1H-pyrazole-5-carboxylate] |  |  |  | chromatographic logP [3, 8]: 3.14 |
| CNC(=O)c1cc(C#N)cc(C)c1NC(=O)c1cc(CSc2ccc(C(F)(F)F)cn2)nn1-c1ncccc1Cl [No. 1 known WO 2007/144100, reference compound] |  |  |  | inhibition at 100 g/ha [1]: 0%; inhibition at 100 g/ha [2]: 0% |
| Methyl 1-(3-chloropyridin-2-yl)-3-{1-hydroxy-2-[5-(trifluoromethyl)-2H-tetrazol-2-yl]ethyl}-1H-pyrazole-5-carboxylate/methyl 1-(3-chloropyridin-2-yl)-3-{1-hydroxy-2-[5-(trifluoromethyl)-1H-tetrazol-1-yl]ethyl}-1H-pyrazole-5-carboxylate [Example No. XII] |  |  |  | logP [3, 9]: 2.64 and 2.68 |
| Methyl 1-(3-chloropyridin-2-yl)-3-{(E)-2-[5-(trifluoromethyl)-2H-tetrazol-2-yl]vinyl}-1H-pyrazole-5-carboxylate/methyl 1-(3-chloropyridin-2-yl)-3-{(E)-2-[5-(trifluoromethyl)-1H-tetrazol-1-yl]vinyl}-1H-pyrazole-5-carboxylate [Example No. XIII] |  |  |  | logP [3, 9]: 3.37 and 3.49 |
